EP2561886A1, “Peptide adjuvant for improved peripheral analgesia” (Forschungsverbund Berlin e.V., priority 2011, dated 2013)
No end group written: not given here. TAMRA = 5(6)-carboxytetramethylrhodamine

Columns and labels:
Caco-2 cell monolayers [1] = test: Transcellular electrical resistance (TER) of Caco-2 cell monolayers; type: cell-based, human; details: for transcellular electrical resistance (TER): 300 µM
Protocol: (§1) Measurements of Transcellular Electrical Resistance (TER) and Paracellular Permeability. 24-well transwell filters (Millicell-CM, Millipore, Eschborn, Germany) were coated with rat tail collagen (250 µg/cm^2) for 16 h, washed twice with PBS (phosphate buffer saline) and preincubated with DMEM (600 µl basolateral, 400 µl apical for Endohm electrodes and 400 µl basolateral, 500 µl apical for the cellZscope system (nanoAnalytics GmbH, Münster, Germany)) for 24 h. Caco-2 cells (200.000 cell/cm^2) were seeded into the filters and grown to high-resistance TER (> 500 Ω/cm^2) for approx. 4 days. Medium was changed every day.
The experiments were performed as followed: After reaching high and stable TER values, cell monolayers were treated with peptides as described above. Control cells were incubated with respective medium. The TER values were measured at distinct time intervals. For re-arrangement of the monolayer, C1C2 was removed from the Caco-2 cells by exchange of the medium.

[2] = tested on: perineurium of the sciatic nerve; test: Mechanical nociceptive thresholds (paw pressure threshold, modified Randall-Selitto test) after perineurial injection at the sciatic nerve; type: in vivo, Male Wistar rats; details: for Mechanical nociceptive thresholds (PPT) after injection of TTX: 10 µM TTX perineurially after peptide pretreatment (C1C2: 24-48 h); for mechanical nociceptive thresholds before the injection of DAMGO (Baseline) / mechanical nociceptive thresholds in contralateral paws: 400 µM peptide perineurially; for mechanical nociceptive thresholds in contralateral paws: contralateral paw
Description: Animals. Animal protocols were approved by the animal care committee of the Regierung von Unterfranken and are in accordance with the International Association for the Study of Pain (44). Male Wistar rats weighing 180-220 g were used.
(§2) Perineurial Injection at the Sciatic Nerve. Nociceptive inputs from the rat hind paw travels through the sciatic nerve. Under brief isoflurane anesthesia, the right sciatic nerve was located using a 22 G needle connected to a nerve stimulator (Stimuplex Dig RC; Braun, Melsungen, Germany) as previously described (45). The needle was advanced to the point of maximal stimulation at 0.2 mA. 300 µl of the indicated substances was injected. If more than one injection within half hour was necessary the total injected volume was maintained at 300 µl.
(§3) Peptides were dissolved in 0.9% NaCl and injected perineurially in the indicated concentrations. Measurements (nociceptive thresholds, tissue harvest for Western blot or immunohistochemistry) were undertaken 24-96 h after peptide injection.
Measurements of Nociceptive Thresholds. Mechanical thresholds were determined using the paw pressure algesiometer (modified Randall-Selitto test; Ugo Basile, Comerio, Italy) as described before (47). The pressure required to elicit paw withdrawal, the paw pressure threshold (PPT), was determined in blinded experiments. Averages were calculated from three measurements each. An increase in PPT was interpreted as antinociception (analgesia), a decrease in PPT was interpreted as hyperalgesia (pain). Measurements were taken 10-60 min after injection of 100 µl containing 30 µg DAMGO or 10 µM TTX. The optimal doses of DAMGO or TTX have been evaluated in pilot studies (data not shown), but are similar to doses used for intraplantar injection in rats.

Caco-2 cell monolayers [3] = test: Paracellular permeability (permeation coefficient of FD-10 and Lucifer Yellow) of Caco-2 cell monolayers; type: cell-based, human; design: key to Paracellular Permeability: ↑ : increase; -: no change; details: for permeation of FD-10: FD-10 (10 kDa); for permeation of FD-10 / permeation of Lucifer Yellow: 48 h after peptide administration; for permeation of Lucifer Yellow: Lucifer Yellow (0.4 kDa); for Paracellular Permeability: summary table of claudin-derived peptides
Protocol: as §1
The permeation studies were performed by addition of 25 µg/ml Lucifer Yellow (0.4 kDa) or FD-10 (fluorescein isothiocyanate-dextran, 10 kDa) in HBSS (Hank's balanced salt solution buffer) on the apical side and HBSS alone on the basolateral side. After 10 min, 100 µl probes were removed from the basolateral side and the fluorescence units were measured by a fluorescence plate reader (Tecan, Crailsheim, Germany) to calculate the PCoeff (permeation coefficient, cm/s). The obtained data were analyzed with GraphPad Prism 3.0 program (GraphPad Software, San Diego, USA).

claudin-1 [4] = target: T1, claudin-1 (Rattus norvegicus, UniProt P56745); test: Immunohistochemistry of claudin-1 in the sciatic nerve after perineurial injection; type: in vivo; details: 400 µM perineurial injection, after 24 h
T1 construct: from tissue; host or cells: sciatic nerve (perineurium) of male Wistar rats
T1 sequence (P56745 1-211): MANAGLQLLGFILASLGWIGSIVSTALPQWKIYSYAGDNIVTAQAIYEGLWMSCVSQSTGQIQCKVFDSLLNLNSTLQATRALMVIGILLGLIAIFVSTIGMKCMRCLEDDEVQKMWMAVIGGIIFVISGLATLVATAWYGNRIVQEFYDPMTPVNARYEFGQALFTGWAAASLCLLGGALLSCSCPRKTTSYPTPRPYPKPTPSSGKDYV
Protocol: as §2, §3
The sciatic nerve was embedded in tissue-Tek compound (O.C.T., Miles Inc. Elkhart, Indiana) for claudin-1 staining. Sections (7-10 µm) were mounted onto gelatin-coated slides. Sections were fixed with acetone for 10 min at 4°C, washed in 0.01 M PBS (pH 7.4) for 10 min, incubated for 120 min in PBS containing 1% Triton X-100, washed in 0.01 M PBS and incubated for 30 min in 3% bovine serum albumin plus 1% normal goat serum blocking solution to prevent nonspecific binding. […] Finally, the sections were mounted and analyzed using the laser scanning microscope (Zeiss, Jena, Germany).

claudin-1 [5] = target: T2, claudin-1 (Homo sapiens, UniProt O95832); test: Immunocytochemistry of claudin-1 and ZO-1 in Caco-2 cell monolayers; type: cell-based; details: 300 µM, 24 and 48 h after treatment
T2 construct: Caco-2 cells express several TJ proteins; endogenous in cells; host or cells: Caco-2
T2 sequence (O95832 1-211): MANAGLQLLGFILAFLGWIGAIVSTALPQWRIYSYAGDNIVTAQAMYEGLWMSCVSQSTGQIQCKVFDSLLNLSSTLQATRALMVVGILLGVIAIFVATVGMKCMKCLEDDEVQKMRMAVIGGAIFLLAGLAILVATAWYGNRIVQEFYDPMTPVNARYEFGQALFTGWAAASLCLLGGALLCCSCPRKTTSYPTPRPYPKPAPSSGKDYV
Protocol: Immunocytochemistry. Immunocytochemistry was performed as previously described (46). Caco-2 cells were transferred into 6-well plates containing collagen-coated cover-slips and grown to 60-70% confluence before use. Cells were treated with C1C2 (300 µM) as well as the control treated without peptide for 24 and 48 h, respectively. The medium was changed, followed by incubation with rabbit anti-claudin-1 and rabbit anti-ZO-1 (zonula occludens protein) antibodies and incubated with Alexa-Fluor 488-conjugated goat anti-rabbit secondary antibody. Cells were analyzed with the confocal microscope.

claudin-1 [6] = target: T1, claudin-1; test: Western blot of claudin-1 in sciatic nerve fractions after perineurial injection; type: in vivo; details: 400 µM perineurial injection
Protocol: as §2, §3
Western Blot Analysis. […] Extracted protein was diluted in lysis buffer and quantified using the BCA protein assay reagent (Pierce, Rockford, IL, USA) and a plate reader (Tecan, Grödig, Austria). […] Proteins were detected using specific antibodies against claudin-1 (Invitrogen, Carlsbad, CA, USA) and as protein loading control […]-actin (Sigma Aldrich, Taufkirchen, Germany), respectively. Visualization was done by luminescence.

[7] = tested on: HEK-293 cells stably transfected with claudin-1-YFP; test: Confocal microscopy of peptide internalization in claudin-1-YFP expressing HEK-293 cells; type: cell-based, human; details: 40 µM
Protocol: (§4) Cell Culture. Caco-2 (colorectal adenocarcinoma) cells (41) were grown in a humidified atmosphere at 37 °C and 10% CO2, whereas HEK-293 (human embryonic kidney) cells (42) and HEK-293 cells stably transfected with claudin-1-YFP (yellow fluorescence protein) (43) were grown at 37 °C and 5% CO2. Cells were cultured in DMEM (Dulbecco's modified Eagle's medium) containing 10% fetal calf serum, 100 units/ml penicillin, 100 µg/ml streptomycin, and 1% L-analyl-L-glutamine.
(§5) Confocal Microscopy. HEK-293 cells and stably claudin-1-YFP expressing HEK-293 cells were transferred into 6-well plates containing collagen-coated cover-slips as described above and grown to 60-70% confluence. Then, cells were treated with the TAMRA-labeled peptide (40 µM) for 15 min, 35 min, and 24 h, respectively. Pluronic ®F-68 (0.0012%) was added as solution enhancer. After removing of the peptide, cells were analyzed with the LSM 510 Meta confocal microscope (Zeiss, Jena, Germany).

wild type HEK-293 cells = test: Confocal microscopy of peptide internalization in wild type HEK-293 cells; type: cell-based, human; details: 40 µM, 24 h
Protocol: as §4, §5

With “ESATHSTGITQSDIYSTLLGLPADIQAAQ-NH2 [Peptide C2C2, peptide from the C-terminal part of the ECL1 of rat claudin-2, same modifications as C1C2, applied as negative control, reference compound]” the “transcellular electrical resistance (TER)” value (Caco-2 cell monolayers [1]; bilateral treatment, 24 h) was “unaffected”, the “Mechanical nociceptive thresholds (PPT) after injection of TTX” value [2] was “unchanged” and the “Mechanical nociceptive thresholds (paw pressure threshold, PPT) after injection of DAMGO” value ([2]; DAMGO perisciatic 0-4 d after perineurial peptide (400 µM)) was “unchanged”. The “permeation of FD-10” value (Caco-2 cell monolayers [3]) was “did not influence” and the “permeation of Lucifer Yellow” value (Caco-2 cell monolayers [3]) was “did not influence”.
With “SSVSQSTGQIQSKVFDSLLNLNSTLQATR-NH2 [Peptide C1C2, 29 amino acid peptide derived from the C-terminal part of the ECL1 of rat claudin-1, Cys54/Cys64 substituted by serines, C-terminally amidated]” the “claudin-1 immunoreactivity in the perineurium” value (claudin-1 [4]) was “decreased”, the “transcellular electrical resistance (TER)” value (Caco-2 cell monolayers [1]; apical treatment) was “significant reduction of the TER, but less efficient then the bilateral treatment” and the TER (Caco-2 cell monolayers [1]; bilateral application of 100, 200, and 300 µM) was “Time- and concentration-dependent reduction”. The “transcellular electrical resistance (TER)” value (Caco-2 cell monolayers [1]; bilateral treatment, 24 h) was “significant reduction”, the “recovery of the cell monolayer (barrier integrity) after removing peptide” value (Caco-2 cell monolayers [1]; peptide removed at 48 h, read 24 h later, i.e. after 72 h) was “Complete recovery” and the “membrane-localized claudin-1” value (claudin-1 [5]) was “clear decrease”. For the same substance, the “claudin-1 protein expression in the membrane” value (claudin-1 [6]; 24 h and 48 h, membrane fraction) was “decreased”, the “claudin-1 protein expression in the cytosol” value (claudin-1 [6]; cytosol fraction) was “No change” and the “Mechanical nociceptive thresholds (PPT) after injection of TTX” value [2] was “enhanced the effect of TTX”. The “mechanical nociceptive thresholds before the injection of DAMGO (Baseline)” value ([2]; 0 h) was 77.67 ± 1.8 g, the “mechanical nociceptive thresholds before the injection of DAMGO (Baseline)” value ([2]; 24 h) was 74.67 ± 3.00 g and the “mechanical nociceptive thresholds before the injection of DAMGO (Baseline)” value ([2]; 48 h) was 68.0 ± 2.02 g. The “mechanical nociceptive thresholds before the injection of DAMGO (Baseline)” value ([2]; 72 h) was 69.00 ± 1.861 g, the “mechanical nociceptive thresholds before the injection of DAMGO (Baseline)” value ([2]; 96 h) was 73.3 ± 2.87 g and the “mechanical nociceptive thresholds in contralateral paws” value ([2]; 0 h) was 77.33 ± 1.3 g. For the same substance, the “mechanical nociceptive thresholds in contralateral paws” value ([2]; 24 h) was 63.33 ± 2.36 g, the “mechanical nociceptive thresholds in contralateral paws” value ([2]; 48 h) was 67.67 ± 2.03 g and the “mechanical nociceptive thresholds in contralateral paws” value ([2]; 72 h) was 65.0 ± 1.25 g. The “mechanical nociceptive thresholds in contralateral paws” value ([2]; 96 h) was 67.67 ± 2.09 g, the “mechanical nociceptive thresholds (PPT) after DAMGO” value ([2]; 24 h after perineurial 100 µM peptide, 10 min after 30 µg DAMGO) was “increase” and the “PPT after DAMGO” value ([2]; 48 h after perineurial 400 µM peptide, 10 min after 30 µg DAMGO) was “Significant increases”. The “permeation of FD-10” value (Caco-2 cell monolayers [3]) was “increased”, the “permeation of Lucifer Yellow” value (Caco-2 cell monolayers [3]) was “increased” and the “Paracellular Permeability” value (Caco-2 cell monolayers [3]) was “↑”.
For “TAMRA-SSVSQSTGQIQSKVFDSLLNLNSTLQATR-NH2 ({TAMRA}-SSVSQSTGQIQSKVFDSLLNLNSTLQATR-NH2) [TAMRA-C1C2, C1C2 N-terminally labeled with TAMRA (5(6)-carboxytetramethylrhodamine)]”, the “intracellular co-localization with claudin-1-YFP” value [7] was “mainly co-localized”, the “membrane-localized claudin-1-YFP” value ([7]; 24 h after treatment) was “decrease” and the internalization ([7]; 15 min, 35 min, 24 h) was “internalized”. The internalization (wild type HEK-293 cells) was “weak unspecific internalization” and the “Paracellular Permeability” value (Caco-2 cell monolayers [3]) was “↑”.
